Test results as given in patent US20250051263A1, “NOVEL IONIZABLE LIPIDS AND LIPID NANOPARTICLES AND METHODS OF USING THE SAME” (Sail Biomedicines, Inc., priority 2021, published 2025).

Experiments:
[1] = TNS (pKa) assay, apparent LNP pKa; type: physicochemical; details: Example 5 LNP lipid:DOPE:Plant Cholesterol:DMPE-PEG2k 35:16:46.5:2.5, FLUC/EPO 1:1 mRNA, N:P 6:1
Procedure: (protocol adapted from: A Novel Amino Lipid Series for mRNA Delivery: Improved Endosomal Escape and Sustained Pharmacology and Safety in Non-human Primates, Sabnis, Staci et al., Molecular Therapy, Volume 26, Issue 6, 1509-1519) 20 buffers (10 mM sodium phosphate, 10 mM sodium borate, 10 mM sodium citrate, and 150 mM sodium chloride, in Distilled Water) of unique pH values ranging from 3.0-12.0 were prepared using 1M sodium hydroxide and 1M hydrochloric acid. 3.25 uL of LNPs (0.04 mg/mL mRNA, in PBS) were incubated with 2 μL of TNS reagent (0.3 mM, in DMSO) and 90 μL of buffer for each pH value (described above) in a 96-well black-walled plate. Each pH condition was performed in triplicate wells. The TNS fluorescence was measured using a Biotek Cytation Plate reader at excitation/emission wavelengths of 321/445 nm. The fluorescence values were then plotted and fit using a 4-parameter sigmoid curve. From the fit, the pH value yielding the half-maximal fluorescence was calculated and reported as the apparent LNP pKa value.
For pKa measurement, a […] assay was conducted according to those described in Sabnis et al., Molecular Therapy, 26(6):1509-19), which is incorporated herein by reference in its entirety. Briefly, 20 buffers (10 mM sodium phosphate, 10 mM sodium borate, 10 mM sodium citrate, and 150 mM sodium chloride, in distilled Water) of unique pH values ranging from 3.0-12.0 were prepared using 1M sodium hydroxide and 1M hydrochloric acid. 3.25 μL of a LNP composition (0.04 mg/mL mRNA, in PBS) was incubated with 2 μL of TNS reagent (0.3 mM, in DMSO) and 90 μL of buffer for each pH value (described above) in a 96-well black-walled plate. Each pH condition was performed in triplicate wells. The TNS fluorescence was measured using a Biotek Cytation Plate reader at excitation/emission wavelengths of 321/445 nm. The fluorescence values were then plotted and fit using a 4-parameter sigmoid curve. From the fit, the pH value yielding the half-maximal fluorescence was calculated and reported as the apparent LNP pKa value.

Balb/c mice = assay: EPO levels in plasma by EPO MSD kit after IV injection of EPO mRNA LNP; type: in vivo; details: Example 5 LNP (DOPE 35:16:46.5:2.5), 5 μg FLUC + 5 μg EPO
Procedure: 8-9 week old female Balb/c mice are utilized for bioluminescence-based ionizable lipid screening efforts. Mice are obtained from Jackson Laboratories (JAX Stock: 000651) and allowed to acclimate for one week prior to manipulations. Animals are placed under a heat lamp for a few minutes before introducing them to a restraining chamber. The tail is wiped with alcohol pads (Fisher Scientific) and 100 μL of a lipid nanoparticle composition descrbed above containing 10 ug total mRNA (5 ug Fluc+5 ug EPO) is injected intravenously using a 29 G insulin syringe (Covidien). Any resulting bleeding is stemmed using a sterile gauze pad (Fisher Scientific) and animals are placed back into their home cage. 4-6 hours post-dose, animals are injected with 200 μL of 15 mg/mL D-Luciferin (GoldBio) and placed in an isoflurane induction chamber set to deliver 2.5% isoflurane delivered at an oxygen flow rate of 1-2 liters per min. After 5 minutes of isoflurane exposure, mice are placed in set nose cones inside the IVIS Lumina LT imager (PerkinElmer). LivingImage software is utilized for imaging. Whole body bio-luminescence is captured at auto-exposure after which animals are removed from the IVIS and placed into a CO2 chamber for euthanasia. Cardiac puncture is performed on each animal after placing it in dorsal recumbency, and blood collection is performed using a 25 G insulin syringe (BD). Blood is collected in Lithium-Heparin coated tubes (Fisher Scientific) and immediately placed on ice. Once all blood samples are collected, tubes are spun at 2000 G for 10 minutes using a tabletop centrifuge and plasma is aliquoted into individual Eppendorf tubes (Fisher Scientific) and stored at −80 C for subsequent EPO quantification. EPO levels in plasma are determined using EPO MSD kit (Meso Scale Diagnostics).
8-9 week old female Balb/c mice were utilized for bioluminescence-based ionizable lipid screening efforts. Mice were obtained from Jackson Laboratories (JAX Stock: 000651) and allowed to acclimate for one week prior to manipulations. Animals were placed under a heat lamp for a few minutes before introducing them to a restraining chamber. The tail was wiped with alcohol pads (Fisher Scientific) and, for each LNP composition descrbed above, 100 μL of a lipid nanoparticle composition descrbed above containing 10 μg total mRNA (5 μg Fluc+5 μg EPO, 5 μg Fluc+5 μg Cre, or 5 μg EGFP) was injected intravenously using a 29 G insulin syringe (Covidien).
4-6 hours post-dose, animals were injected with 200 μL of 15 mg/mL D-Luciferin (GoldBio), and placed in set nose cones inside the IVIS Lumina LT imager (PerkinElmer). LivingImage software was utilized for imaging. Whole body bio-luminescence was captured at auto-exposure after which animals are removed from the IVIS and placed into a CO2 chamber for euthanasia. Cardiac puncture was performed on each animal after placing it in dorsal recumbency, and blood collection was performed using a 25 G insulin syringe (BD). Once all blood samples were collected, tubes are spun at 2000 G for 10 minutes using a tabletop centrifuge and plasma was aliquoted into individual Eppendorf tubes (Fisher Scientific) and stored at −80° C. for subsequent EPO quantification. EPO levels in plasma were determined using EPO MSD kit (Meso Scale Diagnostics).

Compound | pKa (TNS) [1] | hEPO (Balb/c mice)
CCCCCCCCC(CCCCCCCC)OC(=O)CCCCCCCN(CCCCCCCC(=O)OC(CCCCCCCC)CCCCCCCC)CCNC(=O)CCC(=O)NCCN(CCCCCCCC(=O)OC(CCCCCCCC)CCCCCCCC)CCCCCCCC(=O)OC(CCCCCCCC)CCCCCCCC [Compound 2275, 1-octylnonyl 8-[2-[[4-[2-[bis[8-(1-octylnonoxy)-8-oxo-octyl]amino]ethylamino]-4-oxo-butanoyl]amino]ethyl-[8-(1-octylnonoxy)-8-oxo-octyl]amino] octanoate] | 6.03 | –
CCCCCCCCCCCC(=O)OCCCCCN(CCCCCCCC(=O)OC(CCCCCCCC)CCCCCCCC)CCNC(=O)CCC(=O)NCCN(CCCCCCCC(=O)OC(CCCCCCCC)CCCCCCCC)CCCCCOC(=O)CCCCCCCCCCC [Compound 2354, 5-[2-[[4-[2-[5-dodecanoyloxypentyl-[8-(1-octylnonoxy)-8-oxo-octyl]amino]ethylamino]-4-oxo-butanoyl]amino]ethyl-[8-(1-octylnonoxy)-8-oxo-octyl]amino] pentyl dodecanoate] | 6.47 | 1.4E+06
CCCCCC(CCCCC)CCCOC(=O)CCCCCCCN(CCCCCCCC(=O)OCCCC(CCCCC)CCCCC)CCNC(=O)CCC(=O)NCCN(CCCCCCCC(=O)OCCCC(CCCCC)CCCCC)CCCCCCCC(=O)OCCCC(CCCCC)CCCCC [Compound 2332, bis(4-pentyl-nonyl)13,16-dioxo-9,20-bis(8-oxo-8-((4-pentylnon-yl)oxy)octyl)-9,12,17,20-tetraazaocta-cosanedioate] | 6.57 | –
CCCCCCCCCCCOC(=O)CCCCCN(CCCCCCCC(=O)OC(CCCCCCCC)CCCCCCCC)CCNC(=O)NCCN(CCCCCCCC(=O)OC(CCCCCCCC)CCCCCCCC)CCCCCC(=O)OCCCCCCCCCCC [Compound 2246, 1-octylnonyl8-[2-[2-[[8-(1-octylnonoxy)-8-oxo-octyl]-(6-oxo-6-undecoxy-hexyl)amino]ethylcarbamoylamino]ethyl-(6-oxo-6-undecoxy-hexyl)amino]octanoate] | 6.63 | 3.6E+06
CCCCCCCCCCC(CC)OC(=O)CCCCCN(CCCCCCCC(=O)OC(CCCCCCCC)CCCCCCCC)CCNC(=O)/C=C/C(=O)NCCN(CCCCCCCC(=O)OC(CCCCCCCC)CCCCCCCC)CCCCCC(=O)OC(CC)CCCCCCCCCC (stereo not shown) [Compound 2378, 1-octylnonyl 8-[[6-(1-ethylundecoxy)-6-oxo-hexyl]-[2-[[(E)-4-[2-[[6-(1-ethylundecoxy)-6-oxo-hexyl]-[8-(1-octylnonoxy)-8-oxo-octyl]amino]ethylamino]-4-oxo-but-2-enoyl]amino]ethyl]amino]octanoate] | 6.33 | –
CCCCCCCCCCC(CC)OC(=O)CCCCCN(CCCCCCCC(=O)OC(CCCCCCCC)CCCCCCCC)CCNC(=O)CCC(=O)NCCN(CCCCCCCC(=O)OC(CCCCCCCC)CCCCCCCC)CCCCCC(=O)OC(CC)CCCCCCCCCC (stereo not shown) [Compound 2356, 1-octylnonyl 8-[[6-(1-ethylundecoxy)-6-oxo-hexyl]-[2-[[4-[2-[[6-(1-ethylundecoxy)-6-oxo-hexyl]-[8-(1-octylnonoxy)-8-oxo-octyl]amino]ethylamino]-4-oxo-butanoyl]amino]ethyl]amino]octanoate] | 6.01 | 1.3E+08
CCCCCCCCCCCOC(=O)CCCCCN(CCCCCCCC(=O)OCCCC(CCCCC)CCCCC)CCNC(=O)/C=C/C(=O)NCCN(CCCCCCCC(=O)OCCCC(CCCCC)CCCCC)CCCCCC(=O)OCCCCCCCCCCC [Compound 2382, 4-pentylnonyl 8-[2-[[(E)-4-oxo-4-[2-[[8-oxo-8-(4-pentylnonoxy)octyl]-(6-oxo-6-undecoxy-hexyl)amino]ethylamino]but-2-enoyl]amino]ethyl-(6-oxo-6-undecoxy-hexyl)amino]octanoate] | 6.97 | –
CCCCCCCCCCCOC(=O)CCCCCN(CCCCCCCC(=O)OC(CCCCCC)CCCCCCCC)CCNC(=O)CCC(=O)NCCN(CCCCCCCC(=O)OC(CCCCCC)CCCCCCCC)CCCCCC(=O)OCCCCCCCCCCC (stereo not shown) [Compound 2390, 1-hexylnonyl 8-[2-[[4-[2-[[8-(1-hexylnonoxy)-8-oxo-octyl]-(6-oxo-6-undecoxy-hexyl)amino]ethylamino]-4-oxo-butanoyl]amino]ethyl-(6-oxo-6-undecoxy-hexyl)amino]octanoate] | 6.82 | –
CCCCCCCCCC(C)COC(=O)CCCCCN(CCCCCCCC(=O)OC(CCCCCCCC)CCCCCCCC)CCNC(=O)CCC(=O)NCCN(CCCCCCCC(=O)OC(CCCCCCCC)CCCCCCCC)CCCCCC(=O)OCC(C)CCCCCCCCC (stereo not shown) [Compound 2355, 1-octylnonyl 8-[[6-(2-methylundecoxy)-6-oxo-hexyl]-[2-[[4-[2-[[6-(2-methylundecoxy)-6-oxo-hexyl]-[8-(1-octylnonoxy)-8-oxo-octyl]amino]ethylamino]-4-oxo-butanoyl]amino]ethyl]amino]octanoate] | 6.2 | –
CCCCCCCCC(CCCCCCCC)OC(=O)CCCCCCCN(CCCCCCCC(=O)OC(CCCCCCCC)CCCCCCCC)CCNC(=O)CCCC(=O)NCCN(CCCCCCCC(=O)OC(CCCCCCCC)CCCCCCCC)CCCCCCCC(=O)OC(CCCCCCCC)CCCCCCCC [Compound 2320, 1-octylnonyl 8-[2-[[5-[2-[bis[8-(1-octylnonoxy)-8-oxo-octyl]amino]ethylamino]-5-oxo-pentanoyl]amino]ethyl-[8-(1-octylnonoxy)-8-oxo-octyl]amino]octanoate] | 6.07 | –
CCCCCCCCCCCOC(=O)CCCCCN(CCCCCCCC(=O)OC(CCCCCCCC)CCCCCCCC)CCN1CCN(CCN(CCCCCCCC(=O)OC(CCCCCCCC)CCCCCCCC)CCCCCC(=O)OCCCCCCCCCCC)CC1 [Compound 2248, 1-octylnonyl 8-[2-[4-[2-[[8-(1-octylnonoxy)-8-oxo-octyl]-(6-oxo-6-undecoxy-hexyl)amino]ethyl]piperazin-1-yl]ethyl-(6-oxo-6-undecoxy-hexyl)amino]octanoate] | 6.1 | –
CCCCCCCCCOC(=O)CCCCCCCN(CCCCCCCC(=O)OC(CCCCCCCC)CCCCCCCC)CCNC(=O)CCC(=O)NCCN(CCCCCCCC(=O)OCCCCCCCCC)CCCCCCCC(=O)OC(CCCCCCCC)CCCCCCCC [Compound 2213, nonyl 8-[2-[[4-[2-[(8-nonoxy-8-oxo-octyl)-[8-(1-octylnonoxy)-8-oxo-octyl]amino]ethylamino]-4-oxo-butanoyl]amino]ethyl-[8-(1-octylnonoxy)-8-oxo-octyl]amino]octanoate] | 6.54 | –
CCCCCCCCCCCNC(=O)CCCCCN(CCCCCCCC(=O)NC(CCCCCCCC)CCCCCCCC)CCNC(=O)CCC(=O)NCCN(CCCCCCCC(=O)NC(CCCCCCCC)CCCCCCCC)CCCCCC(=O)NCCCCCCCCCCC [Compound 2282, N,N′-bis[2-[[8-(1-octylnonylamino)-8-oxo-octyl]-[6-oxo-6-(undecylamino)hexyl]amino]ethyl]butanediamide] | 6.92 | –
